In patent US11325892B2, “Compounds and methods for treating cancer” (Mayo Foundation for Medical Education and Research, priority 2014, dated 2022):

Key:
[1] = system: PARP cleavage, CHOP, s-XBP1, HERPUD1 in ATC cells; assay: PARP cleavage and UPR protein expression in ATC cells; format: cell-based; conditions: EC50 dose for 72H; all three ATC cells; abrogated with OA
Protocol: Protein extraction and western blot analysis was performed as previously described (Copland J A, Marlow L A, Kurakata S, et al. Novel high-affinity PPARgamma agonist alone and in combination with paclitaxel inhibits human anaplastic thyroid carcinoma tumor growth via p21WAF1/CIP1. Oncogene. Apr 13 2006; 25(16):2304-2317). Primary antibodies included SCD1 (Sigma-Aldrich, #HPA012107), BiP (Cell Signaling, #3183), CHOP (Cell Signaling, #2895), sXBP1(Santa Cruz Biotechnology, #sc-7160), PARP(Cell Signaling, #9542), and β-actin (Sigma-Aldrich, #A5441).
Cells were plated in 4-chamber slides (Thermo Scientific) prior to drug treatment. […]
Exogenous application of MUFAs, such as oleic or palmitoleic acid, can rescue the proliferative defects generated by SCD1 inhibition as these are the primary products of SCD1 enzymatic activity (Roongta U V, Pabalan J G, Wang X, Ryseck R P, Fargnoli J, Henley B J, Yang W P, Zhu J, Madireddi M T, Lawrence R M, Wong T W, Rupnow B A. Cancer cell dependence on unsaturated fatty acids implicates stearoyl-CoA desaturase as a target for cancer therapy. Mol Cancer Res. 2011; 9(11):1551-61). […] Transcriptional upregulation of UPR markers including GADD45a (Growth arrest and DNA damage inducible transcript 1, DDIT1), DDIT3 (DNA damage inducible transcript 3, CHOP), and HERPUD1 homocysteine-inducible, ER stress inducible, ubiquitin-like-1) were evaluated by QPCR.

[2] = system: THJ16T ATC cell xenograft; assay: THJ16T xenograft model; format: in vivo, female athymic nu/nu mice
Protocol: Formalin-fixed, paraffin-embedded subject tissues were mounted on slides, blocked with Diluent (DakoCytomation) for 30 min, and then probed for SCD (Sigma-Aldrich, #HPA012107). IHC scoring was performed as previously described (von Roemeling C A, Marlow L A, Wei J J, et al. Stearoyl-CoA desaturase 1 is a novel molecular therapeutic target for clear cell renal cell carcinoma. Clin Cancer Res. May 1 2013; 19(9):2368-2380). Cases where insufficient tumor tissue presented were excluded. 20× images were obtained using Scanscope XT and Imagescope software.
1×10^6 THJ16T ATC cells were subcutaneously injected in female athymic nu/nu mice (Harlan Laboratories). Treatment was initiated once tumor volumes reached 50-100 mm^3. MF-438 was suspended in 0.5% carboxymethyl-cellulose containing strawberry drink flavoring(0.1 g/mL) in sterilized H2O at 25 mg/kg in a 100 μl dose, and administered via oral gavage once daily. Carfilzomib was solubilized in DMSO (4% of FC), suspended in 100% corn oil at 4 mg/kg per 50 uL dose and administered via intraperitoneal injection twice weekly on consecutive days. Tumor volume(0.5236[L*W*H]) and body weight were measured 2×/week. N=10 mice/group.
MF-438 was tested in combination with carfilzomib in vivo in a THJ16T xenograft model. […] J Clin Endocrinol Metab. 2010; 95(12):5338-47). […] Saline was administered as necessary. These adverse events resolved 24-48 hours after the second administration of carfilzomib. […] However, no other significant adverse events were observed. […] IHC analysis of tumors resected from each treatment group was performed.

Row | SMILES | apoptosis as evaluated by PARP cleavage [1] | tumor response / mean tumor volume course ([2]; THJ16T xenograft) | adverse events ([2]; mice bearing THJ16T xenograft) | survivin expression (IHC) ([2]; mouse, in vivo) | CD31 (IHC), tumor vascularization ([2]; versus placebo control) | cleaved caspase-3 (IHC) ([2]; versus placebo control, only the combination group achieved statistical significance) | HERPUD1 (IHC), marker for ER stress ([2]; versus placebo control, statistically significant combinatorial values)
1 | CNC(=O)c1cccc(NC(=O)N2CCC(Oc3ccccc3Cl)CC2)c1 [A939572] | induced apoptosis |  |  |  |  |  | 
2 | Cc1nnc(-c2ccc(N3CCC(Oc4ccccc4C(F)(F)F)CC3)nn2)s1 [MF-438, 2-methyl-5-(6-(4-(2-(trifluoromethyl)phenoxy)piperidin-1-yl)pyridazin-3-yl)-1,3,4-thiadiazole] |  | no tumor response | Discharge from the eye and squinting | induced survivin expression | trend toward decreased CD31 | increased cleaved caspase-3 | Increased HERPUD1
